Measured values as given in patent EP1136472A1, “ARYL- AND HETEROARYLAMIDES OF CARBOALKOXYSULFANILIC ACIDS” (priority 1998, dated 2000).

Experiments:
[1] = system: primary culture of human lymphocytes; test: Interferon-inducing activity in primary culture of human lymphocytes (IFN-α immunoenzyme test); assay type: cell-based
Description: Interferon synthesis induction caused by the claimed compounds was conducted on a primary culture of human lymphocytes (it is these cells in a human organism that are the main producers of interferons). To obtain lymphocyte culture, fresh blood (within 12 hours after sampling) from healthy donors (not of group II) was used. To separate lymphocytes, heparinized blood obtained from healthy donor was centrifuged in a density gradient ficoll-verografin of […] in order to extract a fraction of immunocompetent cells. This fraction was selected and diluted with the nutrient medium RPMI-1640, containing 5% of fetal calf serum, 0.3 mg/ml of L-glutamin, 100 un/ml of penicillin, and 50 µg/ml of streptomycin. The concentration of lymphocytes was considered after dying them with methylene blue and calculation of cell number in a chamber of a hemocytometer. Initial solutions of the claimed compounds were diluted with the nutrient medium RPMI-1640 so that the final concentrations of the compounds, which were obtained after introduction of lymphocyte suspension, constituted the raw: 100 µg/ml, 10 µg/ml, 1 µg/ml. The final concentration of lymphocytes in the induction mixture was 3x10^6 cell/ml.
Control and test samples were incubated for 24 hours at the temperature of 37°C. After incubation, the samples were centrifuged at 2,000 G to deposit cell elements, and IFN-containing supernatant was separate out of the samples; then the supernatant was analyzed for the quantitative content of IFN. Cell deposition was resuspended in the preceding volume of nutrient medium, colored with vital dye trypan blue, and cell number was counted in a chamber of a hemocytometer (as described above) to determine cytotoxic action of the compounds.
Quantitative determination of the content of IFN in control and test samples was conducted using the immunoenzyme test system Pro Con IF2 Plus, that is intended for determination of IFN-α, which is produced by TOO "Protein contour". The solid-phase immunoenzyme method, utilizing horse radish peroxidase as an indicator enzyme, was used to determine the quantity of interferon in the samples. Activity of the bonded peroxidase was measured using an automatic photometer for microplates with a microprocessor at the wavelength of 450 nm.
Based on the obtained results, a calibrating curve was formed, which allows to obtain data expressed in international units (IU) of activity, using the microprocessor of the automatic photometer. The results of the analysis are expressed in IU of activity of IFN per ml in the given induction system, which contains 3x10^6 lymphocyte/ml. Each test and control point was investigated in four parallels.
Controls of immunoenzyme reaction: • 1. Control of DMSO with a nutrient medium. • 2. Control of system components (according to an instruction).
The obtained data were undergone a statistical analysis using t-criterion, and calculation of the confident interval of probability at p=0.05 was carried out. Coincidence between the results obtained in the parallel tests was analyzed.

[2] = system: Herpes Simplex virus of the type I (HSV-I /Leningrad/248/88); test: Antiviral effect on Herpes Simplex virus (cytopathogenic action on Vero cells); assay type: cell-based; settings: for Quantity of the unchanged cells: number of cells in 100 visual fields
[3] = compound concentration of 100 µg/ml, after 36 hours
[4] = compound concentration of 100 µg/ml, protection of cells from virus as compared to the control of cell culture

For `CCOC(=O)Nc1ccc(S(=O)(=O)Nn2cnnc2)cc1` [XXVI, Carboethoxysulfanylic acid (1,2,4-triazole-4-yl)amide], the “Content of IFN in induction mixture after 24-hour incubation” value (from here on “Content of IFN in induction mixture”) ([1]; 1 mg/l) was 1,6 ± 0,1 IU/3x10^4 lymph./ml, the “Content of IFN in induction mixture” value ([1]; 10 mg/l) was 2 ± 0,2 IU/3x10^4 lymph./ml and the “Content of IFN in induction mixture” value ([1]; 100 mg/l) was 2,5 ± 0,5 IU/3x10^4 lymph./ml.

In the case of `CCCCCCCOC(=O)Nc1ccc(S(=O)(=O)Nc2ccccc2Cl)cc1` [XXVII, Carboheptoxysulfanylic acid (2-chlorophenyl)amide], the “Content of IFN in induction mixture” value ([1]; 1 mg/l) is reported as 1,2 ± 0,1 IU/3x10^4 lymph./ml, the “Content of IFN in induction mixture” value ([1]; 10 mg/l) is reported as 1,5 ± 0,3 IU/3x10^4 lymph./ml and the “Content of IFN in induction mixture” value ([1]; 100 mg/l) is reported as 2 ± 0,3 IU/3x10^4 lymph./ml.

For `Nc1nc2c(ncn2COCCO)c(=O)[nH]1` [Acyclovir, reference compound], the percentage of protection ([2]; Acyclovir 10 µg/ml, as compared to the control of cell culture) was 80% and the “Quantity of the unchanged cells” value ([2]; Acyclovir 10 µg/ml) was 8000.

With `CCCCOC(=O)Nc1ccc(S(=O)(=O)Nc2ccccc2)cc1` [XIII, Carbobutoxysulfanylic acid phenylamide] the “Content of IFN in induction mixture” value ([1]; 1 mg/l) was 1,5 ± 0,2 IU/3x10^4 lymph./ml, the “Content of IFN in induction mixture” value ([1]; 10 mg/l) was 1,4 ± 0,1 IU/3x10^4 lymph./ml and the “Content of IFN in induction mixture” value ([1]; 100 mg/l) was 2 ± 0,1 IU/3x10^4 lymph./ml. The “Quantity of the unchanged cells” value [2, 3] was 5000 and the percentage of protection [2, 4] was 50%.

With `CCCCOC(=O)Nc1ccc(S(=O)(=O)Nc2ccccc2C)cc1` [VIII, Carbobutoxysulfanylic acid (2-toluyl)amide] the “Quantity of the unchanged cells” value [2, 3] was 8000 and the percentage of protection [2, 4] was 80%.

`CCCCOC(=O)Nc1ccc(S(=O)(=O)Nc2ccc(Br)cc2)cc1` [III, Carbobutoxysulfanylic acid (4-bromophenyl)amide] was tested, and the “Content of IFN in induction mixture” value ([1]; 1 mg/l) was 1,4 ± 0,2 IU/3x10^4 lymph./ml, the “Content of IFN in induction mixture” value ([1]; 10 mg/l) was 2,6 ± 0,3 IU/3x10^4 lymph./ml and the “Content of IFN in induction mixture” value ([1]; 100 mg/l) was 3,5 ± 0,2 IU/3x10^4 lymph./ml. The “Quantity of the unchanged cells” value [2, 3] was 5000 and the percentage of protection [2, 4] was 50%.

`CCCCCOC(=O)Nc1ccc(S(=O)(=O)Nc2c(Cl)cccc2Cl)cc1` [XIX, Carbopentoxysulfanylic acid (2,6-dichlorophenyl)amide] was tested, and the “Quantity of the unchanged cells” value [2, 3] was 8000 and the percentage of protection [2, 4] was 80%.

With `CCCCOC(=O)Nc1ccc(S(=O)(=O)Nc2ccccc2Cl)cc1` [IX, Carbobutoxysulfanylic acid (2-chlorophenyl)amide] the “Content of IFN in induction mixture” value ([1]; 1 mg/l) was 1,5 ± 0,1 IU/3x10^4 lymph./ml, the “Content of IFN in induction mixture” value ([1]; 10 mg/l) was 2 ± 0,1 IU/3x10^4 lymph./ml and the “Content of IFN in induction mixture” value ([1]; 100 mg/l) was 2,5 ± 0,5 IU/3x10^4 lymph./ml. For the same compound, the “Quantity of the unchanged cells” value [2, 3] was 7000 and the percentage of protection [2, 4] was 70%.

“Carbo(2,2,2-trifluorethoxy)-sulfanylic acid (1,2,4-thiadiazole-2-butyl-5-yl)amide [XL]” was tested, and the “Content of IFN in induction mixture” value ([1]; 1 mg/l) was 1.6 ± 0.1 IU/3x10^4 lymph./ml, the “Content of IFN in induction mixture” value ([1]; 10 mg/l) was 3.6 ± 0.5 IU/3x10^4 lymph./ml and the “Content of IFN in induction mixture” value ([1]; 100 mg/l) was 14 ± 0.2 IU/3x10^4 lymph./ml. The “Quantity of the unchanged cells” value [2, 3] was 7000 and the percentage of protection [2, 4] was 70%.

For `CCCCCCOC(=O)Nc1ccc(S(=O)(=O)Nc2ccccc2Cl)cc1` [XXVIII, Carbohexoxysulfanylic acid (2-chlorophenyl)amide], the “Content of IFN in induction mixture” value ([1]; 1 mg/l) was 1,4 ± 0,1 IU/3x10^4 lymph./ml, the “Content of IFN in induction mixture” value ([1]; 10 mg/l) was 2,3 ± 0,2 IU/3x10^4 lymph./ml and the “Content of IFN in induction mixture” value ([1]; 100 mg/l) was 3 ± 0,1 IU/3x10^4 lymph./ml.
